Data taken from patent US20110124630A1, “STEMONAMIDE SYNTHESIS INTERMEDIATE AND PHARMACEUTICAL COMPOSITION FOR PREVENTION AND/OR TREATMENT OF CANCER” (priority 2008, published 2011).

Assays:
[1] = tested on: MiaPaCa-2 cell line; assay: Cell growth assay (pancreatic cancer cell), WST-1; type: cell-based, human; settings: Compound 7 4-10 μmol/l, Compound 12 5-30 μmol/l, 0-96 hours, FIG. 6
Procedure: (§1) Human pancreatic cancer cell lines (PCI35, PCI55, PCI66, MiaPaCa-2, L3.6 […], and PANC-1) were dispensed into a 96-well cell culture Microtest Plate (Becton Dickinson) at 3,000 cells/well with 100 μl of culture media. The media were removed 16 to 18 hours after the initiation of culture, and media containing the test compounds (i.e., 0.1% DMSO, Compound 7 (4, 6, 8, 10 μmol/l), Compound 12 (5, 10, 20, 30 μmol/l)) were added at 100 μl/well. After culture was continued for 0, 24, 48, 72, and 96 hours, the medium containing the test compound was removed, and a 10% WST-1 medium (Roche) was added at 100 μl/well. After culture was conducted for an additional 1 hour, the absorbance at 450 nm was assayed using a microplate reader (Model 550, Bio-Rad). RPMI-1640 medium (SIGMA) was used for the PCI35, PCI55, PCI66, MiaPaCa-2, and PANC-1 cell lines, MEM medium (Invitrogen) was used for the L3.6 pl cell lines, and 10% calf serum (Invitrogen), 50 U/ml penicillin G (SIGMA), and 50 μg/ml streptomycin (SIGMA) were added to every medium. The cell lines were cultured in a 37° C. 5% CO2 carbon dioxide incubator (ESPEC).

[2] = tested on: PCI55 cell line; assay: Cell growth assay (pancreatic cancer cell), WST-1; type: cell-based, human; settings: Compound 7 4-10 μmol/l, Compound 12 5-30 μmol/l, 0-96 hours, FIG. 3
Procedure: as §1

[3] = tested on: PCI35 cell line; assay: Cell growth assay (pancreatic cancer cell), WST-1; type: cell-based, human; settings: Compound 7 4-10 μmol/l, Compound 12 5-30 μmol/l, 0-96 hours, FIG. 2
Procedure: as §1

[4] = tested on: PCI66 cell line; assay: Cell growth assay (pancreatic cancer cell), WST-1; type: cell-based, human; settings: Compound 7 4-10 μmol/l, Compound 12 5-30 μmol/l, 0-96 hours, FIG. 7
Procedure: as §1

[5] = tested on: L3.6 pl cell line; assay: Cell growth assay (pancreatic cancer cell), WST-1; type: cell-based, human; settings: Compound 7 4-10 μmol/l, Compound 12 5-30 μmol/l, 0-96 hours, FIG. 5
Procedure: as §1

[6] = tested on: PANC-1 cell line; assay: Cell growth assay (pancreatic cancer cell), WST-1; type: cell-based, human; settings: Compound 7 4-10 μmol/l, Compound 12 5-30 μmol/l, 0-96 hours, FIG. 4
Procedure: as §1

[7] = tested on: HuH7; assay: Cell growth assay (liver cancer cell), WST-1; type: cell-based, human; settings: 4, 6, 8, 10 μmol/l, 0-96 hours, FIG. 8
Procedure: (§2) Human liver cancer cell lines (Hep3B, HuH7, and HepG2 at 4000, 3000, and 4000 cells/well) were dispensed into a 96-well cell culture Microtest Plate (Becton Dickinson) with 100 μl of culture media. The media were removed 16 to 18 hours after the initiation of culture, and media containing the test compounds (0.1% DMSO, Compound 7 (4, 6, 8, and 10 μmol/l)) were added at 100 μl/well. After culture was continued for 0, 24, 48, 72, and 96 hours, the medium containing the test compound was removed, and a 10% WST-1 medium (Roche) was added at 100 μl/well. After culture was conducted for an additional 1 hour, the absorbance at 450 nm was assayed using a microplate reader (Model 550, Bio-Rad). RPMI-1640 medium (SIGMA) was used, and 10% calf serum (Invitrogen), 50 U/ml penicillin G (SIGMA), and 50 μg/ml streptomycin (SIGMA) were added to the medium. The cell lines were cultured in a 37° C. 5% CO2 carbon dioxide incubator (ESPEC).

[8] = tested on: Hep3B; assay: Cell growth assay (liver cancer cell), WST-1; type: cell-based, human; settings: 4, 6, 8, 10 μmol/l, 0-96 hours, FIG. 8
Procedure: as §2

[9] = tested on: HepG2; assay: Cell growth assay (liver cancer cell), WST-1; type: cell-based, human; settings: 4, 6, 8, 10 μmol/l, 0-96 hours, FIG. 8
Procedure: as §2

[10] = target: Pim-3 (Homo sapiens, UniProt Q86V86); assay: In vitro assay of Pim-3 kinase activity (His-Bad phosphorylation, ELISA with anti-pBad Ser112 antibody); type: biochemical; settings: 0, 20, 40, 80, 160 μmol/l compound; 10 μmol/l ATP; 30° C. 1 hour; FIG. 1
Procedure: A His-Bad protein solution (3 μg/ml) diluted with a carbonate buffer (pH 9.6) (15 mmol/l Na2CO3(Wako), […] NaHCO3 (Wako), 0.02% (w/v) NaN3 (Wako), pH 9.6) was added at 100 μl/well to a 96-well microplate (Nunc-Immuno™ Plate, NUNC Brand Products, Nalge Nunc International, Denmark), and the plate was coated at 4° C. overnight. The plate was washed 3 times on the following day, a 1% BSA/PBS(−) solution was added at 150 μl/well, the plate was blocked at 37° C. for 1 hour, and the plate was then washed 3 times. A kinase buffer containing 19.2 nmol/l thioredoxin-hexahistidine-Pim-3 fusion protein, 10 μmol/l ATP (Cell Signaling), and Compounds 5, 7, and 12 synthesized in the examples above (0, 20, 40, 80, and 160 μmol/l) (25 mmol/l Tris-HCl (pH 7.5), 10 mmol/l MgCl2, 0.1 mmol/l Na3VO4, 2 mmol/l dithiothreitol (DTT), 5 mmol/l s-glycerophosphate, Cell Signaling) was added at 40 μl/well to the treated plate. After the reaction was carried out at 30° C. for 1 hour, the plate was washed 5 times, the 1.000-fold diluted anti-pBadser112 rabbit antibody (Cell Signaling) was added at 100 μl/well, and the reaction was carried out at 37° C. for 1 hour. […] The plate was subjected to the absorbance assay at 405 nm using a microplate reader (Model 550, Bio-Rad). […]

[11] = tested on: SW480; assay: Cell growth assay (colon cancer cell), WST-1; type: cell-based, human; settings: 4, 6, 8, 10 μmol/l, 0-96 hours, FIG. 9
Procedure: (§3) Human colon cancer cell lines (SW48, SW480, and HT29 at 3,000 cells/well) were dispensed into a 96-well cell culture Microtest Plate (Becton Dickinson) with 100 μl of culture media. The media were removed 16 to 18 hours after the initiation of culture, and the media containing the test compounds (0.1% DMSO, Compound 7 (4, 6, 8, and 10 μmol/l)) were added at 100 μl/well. After culture was continued for 0, 24, 48, 72, and 96 hours, the medium containing the test compound was removed, and a 10% WST-1 medium (Roche) was added at 100 μl/well. After culture was conducted for an additional 1 hour, the absorbance at 450 nm was assayed using a microplate reader (Model 550, Bio-Rad). RPMI-1640 medium (SIGMA) was used, and 10% calf serum (Invitrogen), 50 U/ml penicillin G (SIGMA), and 50 μg/ml streptomycin (SIGMA) were added to the medium. The cell lines were cultured in a 37° C. 5% CO2 carbon dioxide incubator (ESPEC).

[12] = tested on: SW48; assay: Cell growth assay (colon cancer cell), WST-1; type: cell-based, human; settings: 4, 6, 8, 10 μmol/l, 0-96 hours, FIG. 9
Procedure: as §3

[13] = tested on: HT29; assay: Cell growth assay (colon cancer cell), WST-1; type: cell-based, human; settings: 4, 6, 8, 10 μmol/l, 0-96 hours, FIG. 9
Procedure: as §3

melting point [°C] | Structure (SMILES) | inhibition of cell growth [1] | inhibition of cell growth [2] | inhibition of cell growth [3] | inhibition of cell growth [4] | inhibition of cell growth [5] | inhibition of cell growth [6] | inhibition of cell growth [7] | inhibition of cell growth [8] | inhibition of cell growth [9] | inhibition of Pim-3 activity [10] | inhibition of cell growth [11] | inhibition of cell growth [12] | inhibition of cell growth [13]
209 to 211 | CCOC(=O)C#C[C@@]1(O)/C(=C/c2ccccc2)C[C@@H]2CCCCN3C(=O)CC[C@]231 [Compound 7] | inhibit the growth | inhibit the growth | inhibit the growth | inhibit the growth | inhibit the growth | inhibit the growth | inhibit the growth | inhibit the growth | inhibit the growth | inhibit the Pim-3 activity in a concentration-dependent manner | inhibit the growth | inhibit the growth | inhibit the growth
– | O=C1CC[C@@]23C(=O)CC[C@@H]2CCCCN13 [Compound 5] | – | – | – | – | – | – | – | – | – | inhibit the Pim-3 activity in a concentration-dependent manner | – | – | –
